Reference: ChEMBL document CHEMBL1177695, “Discovery and development of natural product-derived chemotherapeutic agents based on a medicinal chemistry approach” (J Nat Prod, 2010)
In brackets after ≈: the same amount, converted by molar mass. Each block holds one compound with its values, some of them ahead of it.

How the values were obtained:
[1] = Therapeutic index, ratio of IC50 for human H9 cells to EC50 for HIV 3B; format: cell-based; conditions: read-out: TI
[2] = system: Human immunodeficiency virus 1; assay: Antiviral activity against HIV1 3B infected in H9 cells assessed as inhibition of viral replication by p24 antigen ELISA; format: functional, organism-based
[3] = Cytotoxicity against human H9 cells after 4 days by coulter counter; format: cell-based; conditions: human, H9 cells; read-out: TI
[4] = Inhibition of tubulin polymerization
[5] = system: PC-3; assay: Cytotoxicity against human PC3 cells after 3 days by sulforhodamine B assay; format: functional, cell-based; conditions: PC-3, 72 h
[6] = system: 1A9; assay: Cytotoxicity against human 1A9 cells after 3 days by sulforhodamine B assay; format: functional, cell-based; conditions: 1A9, 72 h
[7] = Cytotoxicity against human KBVIN cells after 3 days by sulforhodamine B assay; format: functional, cell-based; conditions: 72 h
[8] = system: KB; assay: Cytotoxicity against human KB cells after 3 days by sulforhodamine B assay; format: functional, cell-based; conditions: 72 h
[9] = system: A-431; assay: Cytotoxicity against human A431 cells after 3 days by sulforhodamine B assay; format: functional, cell-based; conditions: A-431, 72 h
[10] = system: HCT-8; assay: Cytotoxicity against human HCT8 cells after 3 days by sulforhodamine B assay; format: functional, cell-based; conditions: HCT-8, 72 h
[11] = system: A549; assay: Cytotoxicity against human A549 cells after 3 days by sulforhodamine B assay; format: functional, cell-based; conditions: A549, 72 h
[12] = Cytotoxicity against human KB-7d cells after 72 hrs by MTT assay; format: functional, cell-based; conditions: KB7D; for EC50: read-out: ED50 (the source's name)
[13] = system: KB; assay: Cytotoxicity against human KB cells after 72 hrs by MTT assay; format: functional, cell-based; conditions: for EC50: read-out: ED50 (the source's name)
[14] = system: KB; assay: Cytotoxicity against human etoposide-resistant KB cells after 72 hrs by MTT assay
[15] = Cytotoxicity against human KB1 cells after 72 hrs by MTT assay; format: functional, cell-based; conditions: KB1, 72 h
[16] = Human immunodeficiency virus 1, 3B, H9, read-out: EC50

EC50 [2, 16]: 25 nM
Compound: C[C@]12CCC[C@]3(C(=O)OC1)[C@@H]2CC[C@@]12C[C@@H](CC[C@H]13)[C@](C)(O)C2 [NEOTRIPTERIFORDIN]
selectivity ratio [1]: 125

EC50 [2, 16]: < 220 nM
Compound: CC1(C)C=C2[C@H]3CC[C@@H]4[C@@]5(C)CCC(=O)C(C)(C)[C@@H]5CC[C@@]4(C)[C@]3(C)CC[C@@]2(C(=O)O)CC1 [MORONIC ACID]
selectivity ratio [1]: > 186

EC50 [2, 16]: 6 nM
Compound: Cc1cc(=O)oc2c3c(ccc12)OC(C)(C)[C@H](OC(=O)C12CCC(C)(C(=O)O1)C2(C)C)[C@@H]3OC(=O)C12CCC(C)(C(=O)O1)C2(C)C (stereo partly drawn)
selectivity ratio at 96 h [3]: > 39

IC50 [4]: 460 nM
Compound: O=c1cc(-c2ccccc2F)[nH]c2ccc(N3CCCC3)cc12

EC50 [2, 16]: 1300 nM
Compound: CC(=O)O[C@@H]1[C@H](OC(=O)CC(C)C)c2c(ccc3ccc(=O)oc23)OC1(C)C [SUKSDORFIN]
selectivity ratio [1]: 40

Compound: C[C@H]1O[C@H](O[C@H]2CC[C@]3(C=O)[C@H]4CC[C@]5(C)[C@@H](c6ccc(=O)oc6)CC[C@]5(O)[C@@H]4CC[C@]3(O)C2)[C@H](O)[C@@H](O)[C@@H]1O [KALANCHOSIDE A]
IC50 [5]: 0.002 µg/mL (≈ 0.00355 µM)
IC50 [6]: 0.0008 µg/mL (≈ 0.00142 µM)
IC50 [7]: 0.003 µg/mL (≈ 0.00533 µM)
IC50 [8]: 0.003 µg/mL (≈ 0.00533 µM)
IC50 [9]: 0.007 µg/mL (≈ 0.0124 µM)
IC50 [10]: 0.006 µg/mL (≈ 0.0107 µM)
IC50 [11]: 0.0005 µg/mL (≈ 0.000889 µM)

Compound: COc1cc2c(c(OC)c1OC)-c1ccc(SC)c(=O)cc1C(=O)CC2 [THIOCOLCHICONE]
IC50 [4]: 760 nM

EC50 [2, 16]: 67 nM
Compound: COc1c(C)c(O)c(C(=O)/C=C(\O)c2ccccc2)c(O)c1C=O
selectivity ratio [1]: 489

Compound: COc1cc([C@@H]2c3cc4c(cc3[C@@H](NC3=CCC5(C=C3)OCCO5)[C@H]3COC(=O)[C@H]23)OCO4)cc(OC)c1O
IC50 [12]: 1000 nM
IC50 [13]: 680 nM
IC50 [14]: 1600 nM
IC50 [15]: 500 nM

EC50 [2, 16]: 44 nM
Compound: COc1cc2c(c3oc(=O)ccc13)[C@@H](OC(=O)C13CCC(C)(C(=O)O1)C3(C)C)[C@@H](OC(=O)C13CCC(C)(C(=O)O1)C3(C)C)C(C)(C)O2 (stereo partly drawn)
selectivity ratio at 96 h [3]: > 15

IC50 [4]: 500 nM
Compound: COc1cc2c(c(OC)c1OC)-c1ccc(SC)cc1C(=O)CC2

EC50 [2, 16]: 380 nM
Compound: CC(C)(O)[C@H](O)COc1c2occc2cc2ccc(=O)oc12 [HERACLENOL]
selectivity ratio [1]: 870

Compound: CC(C)=CCC/C(C)=C/CC[C@@]1(C)C=Cc2c(cc(C)c(C(=O)O)c2O)O1 [DAURICHROMENIC ACID]
selectivity ratio [1]: 3710
EC50 [2, 16]: 15 nM

Compound: COc1cc([C@@H]2c3cc4c(cc3[C@@H](Nc3ccc(NC(=O)c5cc([N+](=O)[O-])cn5C)cc3)[C@H]3COC(=O)[C@H]23)OCO4)cc(OC)c1O
EC50 [12]: 200 nM
EC50 [13]: 40 nM

Compound: Cc1c(CBr)c(=O)oc2c3c(ccc12)OC(C)(C)[C@H](OC(=O)C12CCC(C)(C(=O)O1)C2(C)C)[C@@H]3OC(=O)C12CCC(C)(C(=O)O1)C2(C)C (stereo partly drawn)
selectivity ratio [1]: 186000
EC50 [2, 16]: 0.11 nM

Compound: C[C@@H]1O[C@@H](O[C@H]2CC[C@]3(C=O)[C@H]4CC[C@]5(C)[C@@H](c6ccc(=O)oc6)CC[C@]5(O)[C@@H]4CC[C@]3(O)C2)[C@@H](O)[C@H](O)[C@@H]1O [KALANCHOSIDE B]
IC50 [5]: 0.01 µg/mL (≈ 0.0178 µM)
IC50 [6]: 0.007 µg/mL (≈ 0.0124 µM)
IC50 [7]: 0.013 µg/mL (≈ 0.0231 µM)
IC50 [8]: 0.005 µg/mL (≈ 0.00889 µM)
IC50 [9]: 0.022 µg/mL (≈ 0.0391 µM)
IC50 [10]: 0.015 µg/mL (≈ 0.0267 µM)
IC50 [11]: 0.001 µg/mL (≈ 0.00178 µM)

Compound: COc1cc([C@@H]2c3cc4c(cc3[C@@H](O[C@@H]3O[C@@H]5CO[C@@H](C)O[C@H]5[C@H](O)[C@H]3O)[C@H]3COC(=O)[C@H]23)OCO4)cc(OC)c1O [ETOPOSIDE]
IC50 [12]: 77500 nM
EC50 [12]: 25000 nM
IC50 [13]: 600 nM
EC50 [13]: 200 nM
IC50 [14]: 28700 nM
IC50 [15]: 34800 nM

EC50 [2, 16]: 4000 nM
Compound: OC[C@@H](O)C[C@H]1OCC2(O)c3c(cc(O)c4c3O[C@@H](c3cc(O)c(O)c(O)c3)[C@@H](O)C4)OC12O (stereo partly drawn)
selectivity ratio [1]: 9.5

Compound: CCC1=C(O)c2c(oc(-c3cccc4ccccc34)cc2=O)C(CC)(CC)C1=O [2-(NAPHTHALEN-1-YL)-6,8,8-TRIETHYL DESMOSDUMOTIN B]
EC50 [5]: 0.2 µg/mL (≈ 0.515 µM)
EC50 [6]: 0.2 µg/mL (≈ 0.515 µM)
EC50 [7]: 0.2 µg/mL (≈ 0.515 µM)
EC50 [8]: 0.2 µg/mL (≈ 0.515 µM)
EC50 [9]: 0.2 µg/mL (≈ 0.515 µM)
EC50 [10]: 0.2 µg/mL (≈ 0.515 µM)
EC50 [11]: 0.2 µg/mL (≈ 0.515 µM)

EC50 [2, 16]: 44 nM
Compound: Cc1cn([C@H]2C[C@H](N=[N+]=[N-])[C@@H](CO)O2)c(=O)[nH]c1=O [ZIDOVUDINE]

EC50 ([2]; h9): Not Active
Compound: COc1cc2ccc(=O)oc2c2c1OC(C)(C)[C@H](OC(=O)C13CCC(C)(C(=O)O1)C3(C)C)[C@@H]2OC(=O)C12CCC(C)(C(=O)O1)C2(C)C (stereo partly drawn)
